Results taken from patent US20220009894A1, “1,2,3,4-TETRAHYDROQUINOXALINE DERIVATIVE, PREPARATION METHOD THEREFOR AND APPLICATION THEREOF” (Abbisko Therapeutics Co., Ltd., priority 2019, published 2022).

Experiments:
RORγt = target: T1, RORγt (Homo sapiens, UniProt P51449); test: RORγt cellular reporter gene detection assay; type: cell-based; settings: 24 hrs; for EC50: HEK 293 cells co-transfected with pFN26A-RORγt-LBD and pG14.35, in presence of antagonist Ursolic acid, top concentration 50 μM; for Cellular Reporter Assay Amax: upper activation limit, HEK 293 cells, in presence of antagonist Ursolic acid;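 on Cellular Reporter Assay Amax: Ursolic Acid added as 5 µL of 20 µM medium per well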
T1 construct: The plasmid of pFN26A-RORγt-LBD and pG14.35 (Promega, Cat. No. E1370) were co-transfected into HEK 293 cells; expressed in transfected cells; host or cells: HEK 293 cells (Cat. No. GNHu18)
T1 sequence (P51449 269-508 limits assumed): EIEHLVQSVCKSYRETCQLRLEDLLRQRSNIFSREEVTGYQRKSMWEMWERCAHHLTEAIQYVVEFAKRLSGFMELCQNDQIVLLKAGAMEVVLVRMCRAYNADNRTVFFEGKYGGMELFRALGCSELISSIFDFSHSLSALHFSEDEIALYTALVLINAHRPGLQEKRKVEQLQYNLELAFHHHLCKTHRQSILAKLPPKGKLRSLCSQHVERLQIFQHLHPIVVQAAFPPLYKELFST
Outline: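 Compounds, titrated 4-fold from a 50 μM top concentration, were added with Ursolic acid to HEK293 cells carrying a RORγt-LBD plasmid and a reporter plasmid. After 24 h at 37° C, dual firefly/Renilla luciferase readout; four-parameter curves gave EC50 and maximal activation (Amax).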

RORγt-LBD = target: T2, RORγt-LBD (Homo sapiens, UniProt P51449); test: Time-resolved fluorescence resonance energy-transfer assay (TR-FRET), co-activator peptide recruitment; type: biochemical; parameters: TR-FRET Biochemical Amax: unit not given here; settings: for EC50: His-RORγt-LBD 30 nM, SRC peptide 500 nM, agonistic activity, averages of one or more measurements, read-out: TR-FRET Biochemical EC50/; for TR-FRET Biochemical Amax: upper activation limit, His-RORγt-LBD, SRC peptide
T2 sequence (P51449 269-508 limits assumed): T1 sequence (P51449 269-508 limits assumed)
Outline: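 This agonist-mode TR-FRET used 30 nM His-tagged RORγt-LBD, 500 nM biotinylated SRC peptide, 0.25 nM Eu-anti-His and 5 nM APC-streptavidin in pH 7.0 Tris/KCl buffer with DTT and Triton. A 7-concentration, 5-fold compound series was incubated at 4 °C overnight plus 1 h at room temperature, and the 665/615 nm signal was read.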

SMILES | EC50 (RORγt) | Cellular Reporter Assay Amax (RORγt) | EC50 (RORγt-LBD) | TR-FRET Biochemical Amax (RORγt-LBD)
NC(=O)C1(N2CCN3c4ccc(-c5cc(F)cc(OC(F)F)c5)cc4N(S(=O)(=O)c4cccc(C(F)(F)F)c4)C[C@@H]3C2)CCC1 [Example 80, (S)-1-(8-(3-(difluoromethoxy)-5-fluorophenyl)-6-((3-(trifluoro-methyl)phenyl)sulfonyl)-1,2,4,4a,5,6-hexahydro-3H-pyrazino[1,2-a]quinoxalin-3-yl)cyclobutane-1-carboxamide] | 209 nM | 3.4 | 39.3 nM | 1.04
NC(=O)C1(N2CCN3c4ccc(/C=C/c5c(Cl)cccc5C(F)(F)F)cc4N(S(=O)(=O)c4cccc(C(F)(F)F)c4)C[C@@H]3C2)CCC1 [Example 81, (S,E)-1-(8-(2-chloro-6-(trifluoro-methyl)styryl)-6-((3-(trifluoro-methyl)phenyl)sulfonyl)-1,2,4,4a,5,6-hexa-hydro-3H-pyrazino[1,2-a]quinoxalin-3-yl) cyclobutane-1-carboxamide] | 355 nM | 4.0 | 21.2 nM | 1.19
C/C(=C\c1ccc2c(c1)N(S(=O)(=O)c1cccc(C(F)(F)F)c1)C[C@@H]1CN(CC(C)(C)O)CCN21)c1c(F)cccc1Cl [Example 82, (S,E)-1-(8-(2-(2-chloro-6-fluorophenyl)prop-1-en-1-yl)-6-((3-(trifluoromethyl)phenyl)sulfonyl)-1,2,4,4a,5,6-hexahydro-3H-pyrazino[1,2-a]quinoxalin-3-yl)-2-methylpropan-2-ol] | 394 nM | 4.5 | 28.1 nM | 1.09
O=C(O)CN1CCN2c3ccc(/C=C/c4c(Cl)cccc4C(F)(F)F)cc3N(S(=O)(=O)c3cccc(C(F)(F)F)c3)C[C@H]2C1 [Example 83, (R,E)-2-(8-(2-chloro-6-(trifluoromethyl)styryl)-6-((3-(trifluoromethyl)phenyl)sulfonyl)-1,2,4,4a,5,6-hexahydro-3H-pyrazino[1,2-a]quinoxalin-3-yl)acetic acid] | 979 nM | 7.0 | 28.9 nM | 0.98
CC(=O)N1CCN2c3ccc(/C=C/c4c(Cl)cccc4C(F)(F)F)cc3N(S(=O)(=O)c3cccc(OC(F)(F)F)c3)C[C@@H]2C1 [Example 84, (S,E)-1-(8-(2-chloro-6-(trifluoromethyl)styryl)-6-((3-(trifluoromethoxy)phenyl)sulfonyl)-1,2,4,4a,5,6-hexahydro-3H-pyrazino[1,2-a]quinoxalin-3-yl)ethan-1-one] | 1140 nM | 4.7 | 207 nM | 0.76
COC(=O)CN1CCN2c3ccc(/C=C/c4c(Cl)cccc4C(F)(F)F)cc3N(S(=O)(=O)c3cccc(OC(F)(F)F)c3)C[C@@H]2C1 [Example 85, methyl (S,E)-2-(8-(2-chloro-6-(trifluoromethyl)styryl)-6-((3-(trifluoromethoxy)phenyl)sulfonyl)-1,2,4,4a,5,6-hexahydro-3H-pyrazino[1,2-a]quinoxalin-3-yl) acetate] | 279 nM | 1.8 | 75.4 nM | 1.01
O=C(O)CN1CCN2c3ccc(/C=C/c4c(Cl)cccc4C(F)(F)F)cc3N(S(=O)(=O)c3cccc(OC(F)(F)F)c3)C[C@@H]2C1 [Example 86, (S,E)-2-(8-(2-chloro-6-(trifluoromethyl)styryl)-6-((3-(trifluoromethoxy)phenyl)sulfonyl)-1,2,4,4a,5,6-hexahydro-3H-pyrazino[1,2-a]quinoxalin-3-yl)acetic acid] | 2340 nM | 12.6 | 78.4 nM | 0.69
O=S(=O)(c1cc(C(F)(F)F)cnc1OCCO)N1C[C@@H]2CNCCN2c2ccc(-c3cc(F)cc(OC(F)F)c3)cc21 [Example 87, (S)-2-((3-((8-(3-(difluoromethoxy)-5-fluorophenyl)-1,2,3,4,4a,5-hexahydro-6H-pyrazino[1,2-a]quinoxalin-6-yl)sulfonyl)-5-(trifluoromethyl)pyridin-2-yl)oxy) ethan-1-ol] | ≥ 50000 nM |  | 384 nM | 0.96

Second part, the compound after the results:

EC50 (RORγt) | Cellular Reporter Assay Amax (RORγt) | EC50 (RORγt-LBD) | TR-FRET Biochemical Amax (RORγt-LBD) | SMILES
≥ 50000 nM |  | 191 nM | 0.72 | CC1(C)C=C(c2ccc3c(c2)N(S(=O)(=O)c2cc(C(F)(F)F)cnc2OCCO)C[C@@H]2CNCCN32)CC(C)(C)O1 [Example 88, (S)-2-((3-((8-(2,2,6,6-tetramethyl-3,6-dihydro-2H-pyran-4-yl)-1,2,3,4,4a,5-hexa hydro-6H-pyrazino[1,2-a]quinoxalin-6-yl)sulfonyl)-5-(trifluoromethyl)pyridin-2-yl)oxy)ethan-1-ol]
1090 nM | 2.7 | 0.53 nM | 0.40 | CS(=O)(=O)N1CCN2c3ccc(-c4cc(F)cc(OC(F)F)c4)cc3N(S(=O)(=O)c3cc(C(F)(F)F)cnc3OCCO)C[C@@H]2C1 [Example 89, (S)-2-((3-((8-(3-(difluoromethoxy)-5-fluorophenyl)-3-(methylsulfonyl)-1,2,3,4,4a,5-hexahydro-6H-pyrazino[1,2-a]quinoxalin-6-yl)sulfonyl)-5-(trifluoromethyl)pyridin-2-yl)oxy)ethan-1-ol]
368 nM | 1.8 | 20.6 nM | 0.86 | COC(=O)CN1CCN2c3ccc(-c4cc(F)cc(OC(F)F)c4)cc3N(S(=O)(=O)c3cc(C(F)(F)F)cnc3OCCO)C[C@@H]2C1 [Example 90, methyl (S)-2-(8-(3-(difluoromethoxy)-5-fluorophenyl)-6-((2-(2-hydroxyethoxy)-5-(trifluoromethyl)pyridin-3-yl)sulfonyl)-1,2,4,4a,5,6-hexahydro-3H-pyrazino[1,2-a]quinoxalin-3-yl)acetate]
3760 nM | 4.1 | 34.1 nM | 0.47 | O=C(O)CN1CCN2c3ccc(-c4cc(F)cc(OC(F)F)c4)cc3N(S(=O)(=O)c3cc(C(F)(F)F)cnc3OCCO)C[C@@H]2C1 [Example 91, (S)-2-(8-(3-(difluoromethoxy)-5-fluorophenyl)-6-((2-(2-hydroxyethoxy)-5-(trifluoromethyl)pyridin-3-yl)sulfonyl)-1,2,4,4a,5,6-hexahydro-3H-pyrazino[1,2-a]quinoxalin-3-yl)acetic acid]
≥ 50000 nM |  | 848 nM |  | O=C(O)CN1CCN2c3ccc(-c4cc(F)cc(OC(F)F)c4)cc3N(S(=O)(=O)C3C=C(C(F)(F)F)C=NC3=O)C[C@@H]2C1 (stereo partly drawn) [Example 92, 2-((4aS)-8-(3-(difluoromethoxy)-5-fluorophenyl)-6-((2-oxo-5-(trifluoromethyl)-2,3-dihydropyridin-3-yl)sulfonyl)-1,2,4,4a,5,6-hexahydro-3H-pyrazino[1,2-a]quinoxalin-3-yl)acetic acid]
264 nM | 2.1 | 46.4 nM | 0.51 | COc1ncc(C(F)(F)F)cc1S(=O)(=O)N1C[C@@H]2CN(CC(=O)O)CCN2c2ccc(-c3cc(F)cc(OC(F)F)c3)cc21 [Example 93, (S)-2-(8-(3-(difluoromethoxy)-5-fluorophenyl)-6-((2-methoxy-5-(trifluoromethyl)pyridin-3-yl)sulfonyl)-1,2,4,4a,5,6-hexahydro-3H-pyrazino[1,2-a]quinoxalin-3-yl)acetic acid]
3550 nM | 1.8 | 159 nM | 0.27 | N#Cc1cccc(-c2ccc3c(c2)N(S(=O)(=O)c2cccc(C(F)(F)F)c2)C[C@@H]2CN(CC(=O)O)CCN32)c1F [Example 94, (S)-2-(8-(3-cyano-2-fluorophenyl)-6-((3-(trifluoromethyl)phenyl)sulfonyl)-1,2,4,4a,5,6-hexahydro-3H-pyrazino[1,2-a]quinoxalin-3-yl)acetic acid]
649 nM | 1.4 | 41.9 nM | 0.40 | N#Cc1cc(F)cc(-c2ccc3c(c2)N(S(=O)(=O)c2cccc(C(F)(F)F)c2)C[C@@H]2CN(CC(=O)O)CCN32)c1 [Example 95, (S)-2-(8-(3-cyano-5-fluorophe-nyl)-6-((3-(trifluoromethyl)phe-nyl)sulfonyl)-1,2,4,4a,5,6-hexa-hydro-3H-pyrazino[1,2-a]quin-oxalin-3-yl)acetic acid]
2090 nM | 1.2 | 31.4 nM | 0.43 | N#Cc1ccc(F)c(-c2ccc3c(c2)N(S(=O)(=O)c2cccc(C(F)(F)F)c2)C[C@@H]2CN(CC(=O)O)CCN32)c1 [Example 96, (S)-2-(8-(5-cyano-2-fluorophe-nyl)-6-((3-(trifluoromethyl)phe-nyl)sulfonyl)-1,2,4,4a,5,6-hexa-hydro-3H-pyrazino[1,2-a]quin-oxalin-3-yl)acetic acid]
